From PMC8765437, “GSK3640254 Is a Novel HIV-1 Maturation Inhibitor with an Optimized Virology Profile” (Antimicrobial Agents and Chemotherapy, 2022)
Read-outs that look alike come from different tables or passages of the source.

System: NLRepRlucP373S viruses containing Gag SDMs or gag/pr genes from clinical isolates
Assay: Multiple-cycle replication assay, NLRepRluc reporter viruses in MT-2 cells, luciferase endpoint
Format: cell-based, HIV-1
Text: Multiple-cycle assays using recombinant viruses or clinical isolates were used to assess MI antiviral activity as described previously ([10]). pNLRepRlucP373S (the P373S change is in the Gag gene and converts an outlier polymorphism in the NL4-3 gene to the prevalent amino acid in the population) plasmids containing SDMs in Gag or gag/pr regions from clinical isolates were transfected into HEK 293T cells, and the supernatant containing recombinant virus was harvested after 4 to 5 days. Virus was used to infect MT-2 cells in the presence of a 3-fold serially diluted compound at a final dimethyl sulfoxide (DMSO) concentration of 1%. The inocula of the reporter viruses were determined based on the luciferase activity detected on day 4 postinfection. The MOI (ratio of infectious virions to target cells) of reporter-free laboratory strains and clinical isolates was 0.005, as derived from a tissue culture infectious dose study. Clinical isolates or reporter-free viruses were examined in the reporter CEM-NKR-CCR5-Luc cells or PBMCs at MOIs ranging from 0.005 to 0.01. Each infection started with a drug-free preincubation of the cell-virus mixtures, performed at 37°C and 5% CO2 for either 1 h at 2 times the final cell density (reporter viruses) or 1 h (reporter-free laboratory strains) or 3 h (clinical isolates) using cell pellets in 0.5 mL of medium. After preincubation, cell-virus mixtures were added to compound-containing 96-well plates for a final cell density of either 10,000 (MT-2 cells for reporter viruses), 20,000 (MT-2 and PM1 cells for reporter-free laboratory strains), 200,000 (PBMCs for clinical isolates), or 500,000 (CEM-NKR-CCR5-Luc for reporter-free laboratory strains) cells per well. The CEM-NKR-CCR5-Luc cell assay was performed in the presence of Polybrene (10 μg/mL). Virus growth was determined on days 4 to 5 postinfection for reporter variants or days 5 to 11 for the other viruses. The reporter viruses were detected by a luciferase assay according to manufacturer protocols (Brite-Glo luciferase kit [Promega] for CEM-NKR-CCR5-Luc cells and Dual-Luciferase Reporter 1000 assay system [Promega] for the other cells), and luminescence was detected on a Wallac Trilux. The growth of clinical isolates in PBMCs was quantitated by reverse transcriptase activity in a 96-well scintillation proximity assay (SPA). Twenty microliters of culture supernatants was mixed with 40 μL of reaction cocktail (62.5 mM Tris-HCl [pH 7.8], 100 mM KCl, 0.0625% NP-40, 2.5 mM dithiothreitol [DTT], 6.25 mM MgCl2, 1 mM EGTA, 6.25 μg/mL of poly rA, 2.5 μg/mL of streptavidin SPA beads prebound with biotinylated-dT12-18, and 1 μCi of [^3H]TTP). Mixtures were incubated at 37°C for ∼3 h and quenched with 100 μl of 0.25 M EDTA per well. Luminescence was detected on a Wallac Trilux programmed for tritium counting with SPA beads in opaque plates. The growth of the reporter-free laboratory M-tropic strains and clinical isolates was monitored by a p24 enzyme-linked immunosorbent assay (ELISA; PerkinElmer Life Sciences, Waltham, MA) performed on culture supernatants. […] A 1:1,000 dilution of cell supernatant in PBS was generally observed to fall in the dynamic range of the endpoint signal.
Maximal percent inhibition values were calculated as MPI = 100 – (mean signals at the 2 highest concentrations of compound/mean signal of 2 no-drug control wells) × 100.

Which results are given for `C=C(C)[C@@H]1CC[C@]2(NCCN3CCS(=O)(=O)CC3)CC[C@]3(C)[C@H](CC[C@@H]4[C@@]5(C)CC=C(c6ccc(C(=O)O)cc6)C(C)(C)[C@@H]5CC[C@]43C)[C@@H]12` [GSK’795, reference compound]?
EC90 (Human immunodeficiency virus 1, MT2, read-out: PBA EC90, subtype B gag/pr 1000156 (V362I)): 600 nM; EC90 (Human immunodeficiency virus 1, MT2, read-out: PBA EC90, subtype B gag/pr 1900120 (V370M)): 6000 nM; EC90 (Human immunodeficiency virus 1, MT2, read-out: PBA EC90, subtype B gag/pr 1900140 (V362I)): 1930 nM; EC90 (Human immunodeficiency virus 1, MT2, read-out: PBA EC90, subtype C gag/pr 93MW690): 1370 nM; EC90 (Human immunodeficiency virus 1, MT2, read-out: PBA EC90, subtype C gag/pr 97ZA003): 2400 nM; EC90 (Human immunodeficiency virus 1, MT2, read-out: PBA EC90, subtype C gag/pr 98CN009): 1870 nM; EC90 (Human immunodeficiency virus 1, MT2, read-out: PBA EC90, subtype C gag/pr 98IN026): 70 nM; EC90 (Human immunodeficiency virus 1, MT2, read-out: PBA EC90, subtype C gag/pr 10215-6): 12000 nM; EC90 (Human immunodeficiency virus 1, MT2, read-out: PBA EC90, subtype C gag/pr 11657-3): 400 nM; EC90 (Human immunodeficiency virus 1, MT2, read-out: PBA EC90, subtype C gag/pr 20635-4): 1700 nM; EC90 (Human immunodeficiency virus 1, MT2, read-out: PBA EC90, subtype C gag/pr 20706-3): 370 nM; EC90 (Human immunodeficiency virus 1, MT2, read-out: PBA EC90, subtype C gag/pr 1300495): 2270 nM; EC90 (Human immunodeficiency virus 1, MT2, read-out: PBA EC90, subtype C gag/pr 1700141): 370 nM; EC90 (Human immunodeficiency virus 1, MT2, read-out: PBA EC90, subtype C gag/pr 1900543): 280 nM; EC90 (Human immunodeficiency virus 1, MT2, read-out: PBA EC90: Mean, minilibrary of HIV-1 polymorphisms, Fig. 1B, GSK’795 mean without 3 viruses lacking measurable EC90): 44800 nM; EC50 (Human immunodeficiency virus 1, MT2, subtype B gag/pr 4NRR (Wild-type)): 1 nM; EC50 (Human immunodeficiency virus 1, MT2, subtype B gag/pr 28-MDR (Wild-type)): 6 nM; EC50 (Human immunodeficiency virus 1, MT2, subtype B gag/pr 92BR014 (V370M)): 4 nM; EC50 (Human immunodeficiency virus 1, MT2, subtype B gag/pr 92BR018 (V, QAΔ)): 3 nM; EC50 (Human immunodeficiency virus 1, MT2, subtype B gag/pr 92TH014 (V362I)): 5 nM; EC50 (Human immunodeficiency virus 1, MT2, subtype B gag/pr 92TH026 (V362I)): 10 nM; EC50 (Human immunodeficiency virus 1, MT2, subtype B gag/pr 92US072 (V362I)): 3 nM; EC50 (Human immunodeficiency virus 1, MT2, subtype B gag/pr 92US729 (Wild-type)): 1 nM; EC50 (Human immunodeficiency virus 1, MT2, subtype B gag/pr 93BR008 (V362I)): 4 nM; EC50 (Human immunodeficiency virus 1, MT2, subtype B gag/pr 93BR009 (V370M)): 2 nM; EC50 (Human immunodeficiency virus 1, MT2, subtype B gag/pr 93BR017 (V, QAΔ)): 16 nM; EC50 (Human immunodeficiency virus 1, MT2, subtype B gag/pr 93BR022 (V, QAΔ)): 10 nM; EC50 (Human immunodeficiency virus 1, MT2, subtype B gag/pr 93BR024 (V362I)): 54 nM; EC50 (Human immunodeficiency virus 1, MT2, subtype B gag/pr 93TH0647 (V362I)): 3 nM; EC50 (Human immunodeficiency virus 1, MT2, subtype B gag/pr 93US141 (V362I)): 9 nM; EC50 (Human immunodeficiency virus 1, MT2, subtype B gag/pr 93US155 (V370T)): 5 nM; EC50 (Human immunodeficiency virus 1, MT2, subtype B gag/pr 411-1-C (Wild-type)): 1 nM; EC50 (Human immunodeficiency virus 1, MT2, subtype B gag/pr 220162 (Wild-type)): 5 nM; EC50 (Human immunodeficiency virus 1, MT2, subtype B gag/pr 400024 (V370M)): 19 nM; EC50 (Human immunodeficiency virus 1, MT2, subtype B gag/pr 400051 (V370A)): 2 nM; EC50 (Human immunodeficiency virus 1, MT2, subtype B gag/pr 1000156 (V362I)): 9 nM; EC50 (Human immunodeficiency virus 1, MT2, subtype B gag/pr 1900120 (V370M)): 8 nM; EC50 (Human immunodeficiency virus 1, MT2, subtype B gag/pr 1900140 (V362I)): 3 nM; EC50 (Human immunodeficiency virus 1, MT2, subtype C gag/pr 93MW690): 10 nM; EC50 (Human immunodeficiency virus 1, MT2, subtype C gag/pr 97ZA003): 6 nM; EC50 (Human immunodeficiency virus 1, MT2, subtype C gag/pr 98CN009): 11 nM; EC50 (Human immunodeficiency virus 1, MT2, subtype C gag/pr 98IN026): 3 nM; EC50 (Human immunodeficiency virus 1, MT2, subtype C gag/pr 10215-6): 7 nM; EC50 (Human immunodeficiency virus 1, MT2, subtype C gag/pr 11657-3): 6 nM; EC50 (Human immunodeficiency virus 1, MT2, subtype C gag/pr 20706-3): 4 nM; EC50 (Human immunodeficiency virus 1, MT2, subtype C gag/pr 1300495): 22 nM; EC50 (Human immunodeficiency virus 1, MT2, subtype C gag/pr 1700141): 8 nM; EC50 (Human immunodeficiency virus 1, MT2, subtype C gag/pr 1900543): 7 nM; MPI (SDM A326T/V362I/V370A): 6%; MPI (SDM A364V): 16%; MPI (SDM R361K/V362I/L363M): 68%; MPI (SDM T332S/V362I/prR41G): 65%; MPI (SDM V362I/V370A): 31%; MPI (SDM V370A): 84%; MPI (SDM Wild type): 94%; MPI (SDM ΔV370): 87%; EC50 (read-out: EC50 (range), Subtype B gag/pr viruses, n=24): 1 to 1400 nM
